For experiment [1], the system named is bisected rat prostatic vas deferens.
A further experiment concerns α2-adrenoceptors. More on the design: species or system rat.

Counter-ions that a name gives are not always drawn.

Turning to `COc1cc2nc(N3CCN(C(=O)c4ccco4)CC3)nc(N)c2cc1OC` [prazosin, prazosin hydrochloride], the “effect on second phase of the contraction” value in experiment [1] is given as “inhibited”.
Regarding `NC[C@H](O)c1ccc(O)c(O)c1` [noradrenaline, (−)-noradrenaline bitartrate], the “−log IC50 of noradrenaline for inhibition of the response to electrical stimulation” value with α2-adrenoceptors came out at 5.96±0.052.
As for CCLIPACRRNHKKFC [truncated ρ-TIA], the “selective β1-adrenoceptor antagonist activity” value in the experiment on β1-adrenoceptor was “inactive”.
As to `NC1=N[C@H](O)[C@H]2[C@H]3O[C@]4(O)O[C@@H]([C@@H](O)[C@@]2(N1)[C@@H]4O)[C@]3(O)CO` [tetrodotoxin], in experiment [1], the “effect on contractions evoked by field stimulation” value is reported as “abolished”.
With `Cc1ccc(C(=O)Nc2ccc(S(=O)(=O)O)c3cc(S(=O)(=O)O)cc(S(=O)(=O)O)c23)cc1NC(=O)c1cccc(NC(=O)Nc2cccc(C(=O)Nc3cc(C(=O)Nc4ccc(S(=O)(=O)O)c5cc(S(=O)(=O)O)cc(S(=O)(=O)O)c45)ccc3C)c2)c1` [suramin], in experiment [1] (0.3 mM), the “effect on initial phase of the contraction” value is reported as “sensitive”.

The values above are taken from US6849601B1 (priority 1998, dated 2005).
